Data as given in patent US9128079B2, “Methods of using lung or bronchial epithelial cells to identify bitter taste modulators” (The Coca-Cola Company, priority 2011, dated 2015).

Experiments:
[1] = system: 16HBE cells; assay: GloSensor cAMP assay, inhibition of forskolin-stimulated cAMP production; type: cell-based, human; settings: increasing concentrations, GloSensor luminescence, FIG. 3
Protocol: Also shown is that overexpression of the wildtype form of RGS21 blunts bitter signaling and increases cAMP levels. Inhibition of forskolin-stimulated cAMP production by treatment with indicated concentrations of denatonium-B was determined 24 hours post-transfection by detection of Promega's cAMP GloSensor-dependent luminescence. Twenty-four hours post-transfection, cells were re-plated on poly-D-lysine-treated, clear-bottom, white 384-well plates at a density of 15,000 cells/well. Forty-eight hours post-transfection, culture medium was aspirated and cells were washed once with assay medium (DMEM (without FBS or phenol), 15 mM HEPES pH 7.4) before being incubated for 2 hours with 20 ill/well of equilibration medium (assay medium with 4% GloSensor™ substrate (Promega; Madison, Wis.)). After two hours, 10 μl of 3× final concentration denatonium benzoate (diluted in 3 μM forskolin-containing assay medium) was added to each well and allowed to incubate for 10 minutes before GloSensor™ emission was read on a MicroBeta Plate Counter (PerkinElmer; Waltham, Mass.). Before plotting, luminescence counts were normalized to 100% maximal response for each condition to account for variability in GloSensor™ expression, transfection efficiency, and the exact number of cells per well.

[2] = system: 16HBE cells; assay: FLIPR calcium flux assay, intracellular calcium release on tastant addition; type: cell-based, human; settings: increasing concentrations of tastant, calcium-sensitive dye, FIG. 2
Protocol: Calcium flux assays were performed as previously described in Strachan et al., “Ribosomal S6 kinase 2 directly phosphorylates the 5-hydroxytryptamine 2A (5-HT2A) serotonin receptor, thereby modulating 5-HT2A signaling,” J Biol Chem 284:5557-5573 (2009). 16-HBE cells were trypsinized, counted, and seeded onto clear-bottomed 96 well plates (Greiner Bio-One; Monroe, N.C.) pre-coated with poly-D-lysine, at a density of […]. After a 24 hour incubation, media was removed and replaced with a Ca^2+ assay buffer (20 mM HEPES, lx HBSS, 2.5 mM probenecid, and Ca^2+ assay dye, pH 7.4) (FLIPR® Calcium Assay Kit; Molecular Device Corp, Sunnyvale, Calif.). After a 1-hour incubation at 37° C., during which the cells were allowed to take up the dye, fluorescence responses of cells were measured with a FLIPRTETRA (Molecular Device Corp; Sunnyvale, Calif.) device upon the addition of variable concentrations of tastant, or vehicle, in the presence of assay buffer (20 mM HEPES, pH 7.4, 1× Hanks Balanced Salt [Invitrogen; Carlsbad, Calif.] and 2.5 mM probenecid). After data acquisition, a subsequent addition of […] was injected into each well, and fluorescence was measured again. […] The cells were loaded with fluorescent calcium-sensitive dye, treated with a variety of tastants, and monitored for intracellular calcium release with a FLIPR imaging device.

SMILES: CC[N+](CC)(CC(=O)Nc1c(C)cccc1C)Cc1ccccc1 [denatonium-B, denatonium benzoate]
- intracellular cyclic AMP concentration in 16HBE cells [1]: decreasing the concentration of intracellular cyclic AMP
- intracellular calcium response of 16HBE cells [2]: increase in intracellular calcium
